Assay results reported in US20230355749A1, “Immunomodulatory Compounds And Use Thereof For The Treatment And/Or Prevention Of Infectious Diseases” (AC […], priority 2020, published 2023).
Where a name gives a salt, the structure may show the parent alone.

Key:
[1] = test system: immature DC (CD11c+MHC-II int); test: Endocytosis (uptake) of OVA-AF647 protein by immature DC; format: cell-based, C57BL/6 mice; details: pretreated 3 hours (ACB1801s 20 μM), OVA-AF647 2 μg/ml; for percentage of OVA-AF647+ cells: 3 mice, vehicle 71.00+/−0.058; for Median Fluorescence Intensity of OVA-AF647 within the positive population (amount of protein taken up): vehicle 5533.33+/−60.26, P≤0.0001
[2] = test system: Bone-marrow derived dendritic cells (BMDC); test: Co-stimulatory marker and MHC surface expression by FACS in BMDC stimulated with LPS and OVA257-264 peptide; format: cell-based, C57BL/6 mice; details: pre-treated 1 hour, then LPS 100 ng/ml + OVA257-264 peptide 10 μM for 24 hours; live CD11c+ population
Procedure: (§1) Cells were analysed for expression of co-stimulatory markers and MHC complexes at the cell surface by FACS, gated on the live CD11c+ population. Panel A) Median fluorescence intensity ([…]) of CD40, CD80 and CD86 expression. Panel B) Overall expression of MHC-II, given by the expression of I-Ab. Panel C) Relative surface expression of MHC-I (H2-Kb): OVA257-264 peptide complexes over the total surface expression of H2-Kb. Panel D) Quantification of cytokine secretion by ELISA. Data is expressed as the mean+/−standard error of the mean (SEM). Statistical significance was determined by a student's t-test with *p≤0.05.
(§2) LPS (100 ng/ml) was used in this instance as a model Toll-like Receptor ligand for a pathogen and a surrogate for the licensed TLR-specific adjuvant-MPLA.

[3] = test system: LPS-matured BMDC; details: DC matured with 100 ng/ml LPS 36 h; pretreated 1 hour, Eα55-68 pulse 3 hours, analyzed after 24 hours; live CD11c+MHC-II(I-Ab) high; vehicle 1553.33±54.93, p=0.03
Text: Specifically, these complexes were recognized using fluorochrome-labelled monoclonal antibodies of Y-Ae for I-Ab: Eα55-68 complexes and 25-D1.16 for H2-Kb: OVA257-264 complexes. In all experiments, BMDC were differentiated in vitro from bone marrow precursor cells of C57BL/6 mice using GM-CSF and IL-4 at 250 and 5 UI/ml, respectively.

[4] = test system: Bone-marrow derived dendritic cells (BMDC); test: Cytokine secretion by ELISA in BMDC stimulated with LPS and OVA257-264 peptide; format: cell-based, C57BL/6 mice; details: LPS 100 ng/ml + OVA257-264 peptide 10 μM, after 24 hours
Procedure: as §1, §2

SMILES	percentage of OVA-AF647+ cells [1]	Median Fluorescence Intensity of OVA-AF647 within the positive population (amount of protein taken up) [1]	expression of CD80/CD86 co-stimulatory markers [2]	overall expression of surface MHC-II (I-Ab) [2]	Median Fluorescence Intensity (MFI) of I-Ab: Eα55-68 specific complexes [3]	levels of pro-inflammatory cytokines (IL-6, and TNF) [4]
Cc1[nH]ccc2c1[nH]c1cc(=O)ccc12 [ACB1804s, harmol HCl]	73.867+/−0.751	6628+/−98.475	–	–	–	–
COc1ccc2c(c1)[nH]c1c(C)nccc12.Cl [ACB1801s, harmine HCl]	72.37+/−0.94	6725.67+/−41.450	increased	increased	1742.33±15.62	reduced
